From PMC8920304, “Potent Inhibition of Human Cytochrome P450 3A4 by Biflavone Components from Ginkgo Biloba and Selaginella Tamariscina” (Frontiers in Pharmacology, 2022)

Columns and labels:
CYP3A4 [1] = biological target: T1, CYP3A4 (Homo sapiens, UniProt P08684); test: Inhibition of CYP3A4-mediated oxidation of clinical drugs (tamoxifen, gefitinib, ticagrelor) in HLM, LC-MS/MS; format: in vitro ADME; settings: 30 min, ± SD
T1 construct: The primary incubation mixture contains HLM, potassium phosphate buffer; from tissue; host or cells: human liver microsomes (HLM)
Protocol: Varying concentrations of DGK, GK, IGK, and AMF incubated for 30 min with gefitinib (10 μM), tamoxifen (20 μM), ticagrelor (30 μM), respectively ([Wang et al., 2020]). The ExionLC AD HPLC system consisted of an autosampler, a quaternary delivery system and a degasser. The chromatograph was equipped with a Luna Omega PS C18 (2.1 × 100 mm, 3 μm) analytical column, and the mobile phase consisted of 0.1% formic acid aqueous solution (A) and ACN (B), and were conducted with a 0.30 ml/min flow rate as follow for the gradient program: 0–1.5 min (10–10% B), 1.5–3.0 min (10–45% B), 3.0–5.0 min (45–90% B). An AB MDS Sciex QTRAP 5500 Mass Spectrometer equipped with an ESI source was used to analyze the target substances. The positive mode was used with N-demethylated tamoxifen (358.0→58.0) and defluorinated gefitinib (445.0→128.0). The relative parameters were set as follows: ion spray voltage, 5500 V; temperature, 550°C; curtain gas (CUR) flow, […]; gas1 and gas2 (nitrogen), 45 and 55 psi. The negative mode was used with dehydroxyethoxylated ticagrelor (477.2→361.1). The relative parameters were set as follows: ion spray voltage, -4500 V; temperature, 550°C; curtain gas flow, […]; gas1 and gas2, 50 and 50 psi. For other parameters, please refer to Supplementary Table S1 in the supplementary data.

CYP3A4 [2] = biological target: T1, CYP3A4; test: Inhibition kinetic characterization with NEN 4-hydroxylation in HLM; format: in vitro ADME; settings: for Type of inhibition: NEN 4-hydroxylation; for Ki: NEN 15-150 µM, 30 min; for ɑ (degree to which inhibitor binding influences enzyme-substrate binding): mixed-inhibition model
Protocol: Varying concentrations of DGK, GK, IGK, and AMF incubated for 30 min with varying concentrations of NEN (15–150 µM). The high-throughput screening assay was performed, and the inhibition curve was fitted with GraphPad Prism (Version 8.0). The inhibition type was confirmed based on the R square of the following four equations and the Dixon and Lineweaver–Burk plots. The inhibition constant (K i) values were determined using the equations for competitive inhibition (Eq. 1), noncompetitive inhibition (Eq. 2), uncompetitive inhibition (Eq. 3), and mixed inhibition (Eq. 4). v=VmaxS/Km(1+I/Ki)+S (1) v=VmaxS/(Km+S)(1+I/Ki) (2) v=VmaxS/S(1+I/Ki)+Km (3) v=VmaxS/Km(1+I/Ki)+S(1+I/αKi) (4)

CYP3A4 [3] = biological target: T1, CYP3A4; test: Inhibition of NEN 4-hydroxylation in human liver microsomes (fluorescence high-throughput screening); format: in vitro ADME; settings: HLM, NEN probe, mean ± S.D. (n = 3); read-out: IC50 against CYP3A4 (NEN 4-hydroxylation)
Protocol: The primary incubation mixture contains HLM, potassium phosphate buffer (pH 7.4, 100 mM), G-6-P (10 mM), G-6-P dehydrogenase (1 U/ml), MgCl2 (4 mM), NEN (50 µM), extracts of herbal medicine (20 µg/ml), or components. The incubation duration and HLM protein concentrations were 30 min and 0.05 mg/ml, respectively. The reaction was initiated by the addition of NADP^+ and terminated by the addition of 100 µL ice-cold acetonitrile (ACN). NEN 4-hydroxylation were utilized as the probe reaction for CYP3A4, and fluorescence image of 96-well microplates were measured by a fluorescent image analyzer (GE Amersham Typhoon, Sweden) under the excitation wavelength of 488 nm (E m: 570 ± 15 nm). The formation of NEHN was evaluated by the quantitative analysis of fluorescence signal for individual wells of microplates using the equipment supporting software. The percentage residual activity was calculated from percentage relative value of NEHN formation rate.

CYP3A4 [4] = biological target: T1, CYP3A4; set-up: method as in Ning et al., 2019; settings: HLM; ref Ning et al., 2019; cited from earlier work
[5] = gefitinib 10 μM, defluorination, read-out: IC50 toward gefitinib
[6] = tamoxifen 20 μM, N-demethylation, read-out: IC50 toward tamoxifen
[7] = ticagrelor 30 μM, dehydroxyethoxylation, read-out: IC50 toward ticagrelor

T1 sequence (P08684 whole entry): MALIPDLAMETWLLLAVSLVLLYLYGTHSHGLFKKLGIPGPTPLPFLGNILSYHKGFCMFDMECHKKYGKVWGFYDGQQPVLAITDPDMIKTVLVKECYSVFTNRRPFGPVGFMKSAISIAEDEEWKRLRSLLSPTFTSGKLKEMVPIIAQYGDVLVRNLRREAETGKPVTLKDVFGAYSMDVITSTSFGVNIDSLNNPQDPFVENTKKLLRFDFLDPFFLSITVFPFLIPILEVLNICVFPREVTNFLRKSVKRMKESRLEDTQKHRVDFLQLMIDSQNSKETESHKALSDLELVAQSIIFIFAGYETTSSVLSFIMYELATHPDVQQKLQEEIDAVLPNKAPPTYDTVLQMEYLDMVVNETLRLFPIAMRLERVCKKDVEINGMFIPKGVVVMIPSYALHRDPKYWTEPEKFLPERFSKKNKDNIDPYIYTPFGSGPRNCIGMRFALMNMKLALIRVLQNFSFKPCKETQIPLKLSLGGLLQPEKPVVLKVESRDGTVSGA

| Compound | IC50 (CYP3A4 [1]; [5]) | IC50 (CYP3A4 [1]; [6]) | IC50 (CYP3A4 [1]; [7]) | Type of inhibition (CYP3A4 [2]) | Ki (CYP3A4 [2]) | ɑ (degree to which inhibitor binding influences enzyme-substrate binding) (CYP3A4 [2]) | IC50 (CYP3A4 [3]) | Inhibition of C4-hydroxylation of NEN in human liver microsomes (in words) (CYP3A4 [4]) |
| --- | --- | --- | --- | --- | --- | --- | --- | --- |
| O=c1cc(-c2ccc(O)c(-c3c(O)cc(O)c4c(=O)cc(-c5ccc(O)cc5)oc34)c2)oc2cc(O)cc(O)c12 [AMF, Amentoflavone] | 5200 ± 527 nM | 2720 ± 93 nM | 2920 ± 47 nM | mixed reversible inhibition | 101 ± 30 nM | 5.55 | 186 ± 4 nM |  |
| Cc1ccc(-c2c(-c3nn(C)c4ncnc(N5CC[C@H](N6CCCCC6)C5)c34)cnn2C)cc1 [CYP3cide] |  |  |  |  |  |  |  | strongly inhibited |
| COc1ccc(-c2cc(=O)c3c(O)cc(O)cc3o2)cc1-c1c(O)cc(O)c2c(=O)cc(-c3ccc(O)cc3)oc12 [DGK, bilobetin] | 1720 ± 1 nM | 1020 ± 88 nM | 3500 ± 34 nM | mixed reversible inhibition | 70 ± 18 nM | 2.98 | 162 ± 22 nM |  |
| COc1cc(O)c2c(=O)cc(-c3ccc(OC)c(-c4c(O)cc(O)c5c(=O)cc(-c6ccc(O)cc6)oc45)c3)oc2c1 [GK, ginkgetin] | 869 ± 1 nM | 478 ± 3 nM | 1610 ± 39 nM | mixed reversible inhibition | 34 ± 7 nM | 4.56 | 106 ± 4 nM |  |
| COc1ccc(-c2cc(=O)c3c(O)cc(O)c(-c4cc(-c5cc(=O)c6c(O)cc(O)cc6o5)ccc4OC)c3o2)cc1 [IGK, isoginkgetin] | 13100 ± 415 nM | 4660 ± 236 nM | 10200 ± 382 nM | mixed reversible inhibition | 278 ± 87 nM | 2.79 | 982 ± 6 nM |  |
